# According to ChEMBL document CHEMBL3217459, “3-Diarylethyne quinazolinones: a new class of senescence inducers” (Medchemcomm, 2013):
# Active and inactive are the calls of the source. The rule behind the calls is not given here.
# Legend:
# [1] = test system: COLO 205; experiment: Cytotoxicity against human COLO205 cells assessed as cell viability after 48 hrs by MTT assay; type: functional, cell-based; conditions: COLO 205, 48 h
# [2] = test system: MCF7; experiment: Induction of DNA damage in human MCF7 cells assessed as increase in gamma H2AX level measured at 4 uM after 24 hrs by Western blot analysis; type: functional, cell-based
# [3] = test system: HCT-116; experiment: Induction of senescence in human HCT116 cells assessed as increase in p21 expression at 4 uM after 24 hrs by Western blot analysis; type: functional, cell-based
# [4] = test system: MCF7; experiment: Induction of DNA damage in human MCF7 cells assessed as increase in TRF1 level measured at 4 uM after 24 hrs by Western blot analysis; type: functional, cell-based
# [5] = Cytotoxicity against human MCF10A cells assessed as cell viability after 48 hrs by MTT assay; type: cell-based; conditions: MCF-10A
# [6] = test system: MCF7 (Homo sapiens); experiment: Induction of senescence in human MCF7 cells assessed as increase in p16 expression at 4 uM after 24 hrs by Western blot analysis
# [7] = test system: MDA-MB-231; experiment: Cytotoxicity against human MDA-MB-231 cells assessed as cell viability after 48 hrs by MTT assay; type: functional, cell-based; conditions: MDA-MB-231, 48 h
# [8] = test system: A549; experiment: Cytotoxicity against human A549 cells assessed as cell viability after 48 hrs by MTT assay; type: functional, cell-based; conditions: A549, 48 h
# [9] = test system: HCT-116; experiment: Induction of senescence in human HCT116 cells assessed as increase in p16 expression at 4 uM after 24 hrs by Western blot analysis; type: functional, cell-based
# [10] = Cytotoxicity against human MIAPaCa2 cells assessed as cell viability after 48 hrs by MTT assay; type: functional, cell-based; conditions: MIA PaCa-2, 48 h
# [11] = test system: MCF7; experiment: Cell cycle arrest in human MCF7 cells assessed as accumulation at G2/M phase at 4 uM after 24 hrs using propidium iodide staining by FACS analysis (reference value: 19%); type: functional
# [12] = molecular target: Telomerase reverse transcriptase (Homo sapiens) (UniProt O14746); experiment: Inhibition of telomerase activity in human MCF7 cells assessed as un-repairable DNA damage at 4 uM after 24 hrs; type: cell-based
# Sequence of Telomerase reverse transcriptase (Homo sapiens) (O14746 whole entry): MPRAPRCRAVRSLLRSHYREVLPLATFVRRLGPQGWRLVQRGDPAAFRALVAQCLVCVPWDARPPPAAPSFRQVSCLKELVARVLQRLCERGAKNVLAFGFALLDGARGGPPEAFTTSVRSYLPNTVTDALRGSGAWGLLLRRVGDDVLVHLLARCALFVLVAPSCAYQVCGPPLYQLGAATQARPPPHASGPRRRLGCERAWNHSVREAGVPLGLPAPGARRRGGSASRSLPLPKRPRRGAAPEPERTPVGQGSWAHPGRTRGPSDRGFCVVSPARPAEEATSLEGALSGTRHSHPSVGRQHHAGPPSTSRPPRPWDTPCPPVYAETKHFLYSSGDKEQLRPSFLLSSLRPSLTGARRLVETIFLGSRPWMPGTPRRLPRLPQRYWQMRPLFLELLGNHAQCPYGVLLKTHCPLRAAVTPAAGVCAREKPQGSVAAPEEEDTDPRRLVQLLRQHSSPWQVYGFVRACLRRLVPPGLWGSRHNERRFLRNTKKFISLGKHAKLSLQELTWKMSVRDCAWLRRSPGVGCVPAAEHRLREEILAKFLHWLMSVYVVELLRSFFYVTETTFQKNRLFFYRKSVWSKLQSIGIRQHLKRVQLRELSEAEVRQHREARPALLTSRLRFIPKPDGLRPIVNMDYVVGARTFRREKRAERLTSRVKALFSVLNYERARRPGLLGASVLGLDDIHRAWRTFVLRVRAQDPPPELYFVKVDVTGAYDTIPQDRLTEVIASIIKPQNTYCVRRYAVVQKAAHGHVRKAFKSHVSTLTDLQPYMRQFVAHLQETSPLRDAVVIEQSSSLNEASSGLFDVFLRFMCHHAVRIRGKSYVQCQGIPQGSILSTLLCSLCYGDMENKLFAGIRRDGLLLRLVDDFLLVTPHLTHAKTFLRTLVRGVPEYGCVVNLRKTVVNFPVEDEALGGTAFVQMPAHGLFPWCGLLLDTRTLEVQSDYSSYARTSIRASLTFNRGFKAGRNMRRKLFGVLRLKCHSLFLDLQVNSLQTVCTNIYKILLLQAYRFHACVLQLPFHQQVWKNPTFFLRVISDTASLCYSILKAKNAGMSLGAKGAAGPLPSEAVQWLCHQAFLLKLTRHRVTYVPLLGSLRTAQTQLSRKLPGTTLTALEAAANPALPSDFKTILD
# [13] = test system: SW116; experiment: Induction of senescence in human SW116 cells assessed as increase in p21 expression at 4 uM after 24 hrs by Western blot analysis; type: functional, cell-based
# [14] = test system: MCF7; experiment: Cytotoxicity against human MCF7 cells assessed as cell viability after 48 hrs by MTT assay; type: functional, cell-based; conditions: MCF7, 48 h
# [15] = test system: MCF7; experiment: Cytotoxicity against human MCF7 cells assessed as cell viability at 4 uM after 48 hrs by MTT assay; type: functional
# [16] = test system: MCF7; experiment: Cell cycle arrest in human MCF7 cells assessed as accumulation at S phase at 4 uM after 24 hrs using propidium iodide staining by FACS analysis (reference value: 11%); type: functional
# [17] = test system: MCF7; experiment: Induction of senescence in human MCF7 cells assessed as increase in p21 expression at 4 uM after 24 hrs by Western blot analysis; type: functional, cell-based
# [18] = test system: MCF7; experiment: Induction of DNA damage in human MCF7 cells assessed as increase in POT1 level measured at 4 uM after 24 hrs by Western blot analysis; type: functional, cell-based
# [19] = test system: MCF7; experiment: Cytotoxicity against human MCF7 cells assessed as cell viability at 2 uM after 48 hrs by MTT assay; type: functional
# [20] = test system: MCF7; experiment: Induction of senescence in human MCF7 cells assessed as decrease in SKP2 expression at 4 uM after 24 hrs by Western blot analysis; type: functional, cell-based
# [21] = test system: MCF7; experiment: Cell cycle arrest in human MCF7 cells assessed as accumulation at G1 phase at 4 uM after 24 hrs using propidium iodide staining by FACS analysis (reference value: 70%); type: functional
# [22] = test system: MCF7; experiment: Induction of DNA damage in human MCF7 cells assessed as decrease in TRF2 level measured at 4 uM after 24 hrs by Western blot analysis; type: functional, cell-based
# [23] = test system: MCF7; experiment: Induction of senescence in human MCF7 cells assessed as increase in p53 expression at 4 uM after 24 hrs by Western blot analysis; type: functional, cell-based
# [24] = test system: MCF7; experiment: Induction of senescence in human MCF7 cells assessed as increase in p16 expression at 4 uM after 24 hrs by Western blot analysis; type: functional, cell-based
# [25] = test system: MCF7; experiment: Induction of senescence in human MCF7 cells expressing wild type p53 at 4 uM after 24 hrs by Western blot analysis; type: functional, cell-based
# [26] = test system: MDA-MB-231; experiment: Induction of senescence in human MDA-MB-231 cells expressing mutant p53 at 4 uM after 24 hrs by Western blot analysis; type: functional, cell-based
SMILES,IC50 [1] [µM],Activity [2],Activity [3],Activity [4],IC50 [5] [µM],Activity [6],IC50 [7] [µM],IC50 [8] [µM],Activity [9],IC50 [10] [µM],Activity [11] [%],inhibition [12],Activity [13],IC50 [14] [µM],Activity [16] [%],Activity [17],inhibition [20],Activity [21] [%],Activity [23],Activity [24],other results
COc1cc(/C=C/c2nc3ccccc3c(=O)n2-c2ccc(C#Cc3ccccc3)cc2C)cc(OC)c1OC,6.24,Active,Active,Active,8,Active,5.56,6.54,Active,6.01,5,Active,Active,2.46,5,Active,Active,90,Active,Active,OD [15]: 0.27; Activity [18]: Active; OD [19]: 0.47; inhibition [22]: Active
COc1ccc(/C=C/c2nc3ccccc3c(=O)n2-c2ccc(C#Cc3ccc(C(C)(C)C)cc3)cc2C)cc1O,5.19,Active,Active,Active,12,Active,5.69,5.74,Active,6.8,5,Active,Active,3.88,4,Active,Active,91,Active,Active,OD [15]: 0.27; Activity [18]: Active; OD [19]: 0.84; inhibition [22]: Active
COc1cccc2c1C(=O)c1c(O)c3c(c(O)c1C2=O)C[C@@](O)(C(=O)CO)C[C@@H]3O[C@H]1C[C@H](N)[C@H](O)[C@H](C)O1 [DOXORUBICIN],0.37,–,Active,–,31,Active,0.16,0.73,Active,0.14,16,–,Active,0.1,2,Active,Active,82,Active,Active,Activity [25]: Active; Activity [26]: inactive
COc1ccc(/C=C/c2nc3ccccc3c(=O)n2-c2ccc(C#Cc3ccc(C(C)(C)C)cc3)cc2C)cc1OC,5.68,Active,Active,Active,13,Active,5.84,6.15,Active,5.89,6,Active,Active,2.72,3,Active,Active,91,Active,Active,OD [15]: 0.27; Activity [18]: Active; OD [19]: 0.41; inhibition [22]: Active
